One series relates to MDS, AML, CML, ALL, NHL. The following applies: treatment of MDS; cited from earlier work.
Another series is described as follows: pKa of 5-azacytidine. The following applies: 25° C. Format: physicochemical. From the text: (§1) Generally at lower temperature a smaller amount of 5-azacytidine may be dissolved in water.
Series [1] in a line: aqueous solubility of 5-azacytidine. The following applies: water. Format: physicochemical. How it is done: In one embodiment, the reconstituted liquid dosage form is allowed to warm to room temperature (e.g., within a period of less than about 30 minutes) before parenteral use. […] In some embodiments, when the dosage form is at room temperature, about one-half of 5-azacytidine is dissolved, with about the other half present as solid in the suspension.
as §1

The nature of series [2]: aqueous degradation kinetics of 5-azacytidine (solution and suspension). Format: physicochemical. How it is done: The aqueous degradation kinetics of 5-azacytidine was evaluated. […] At lower temperatures, the degradation of 5-azacytidine is slower.
Series [3] in a line: human pharmacokinetics of 5-azacytidine after SC or IV dosing. The series is classed as in vivo.
A short description of series [4]: stability of 5-azacytidine suspension reconstituted with cold Water for Injection, stored refrigerated or frozen (Example E). The series is classed as physicochemical. How it is done:
The reconstituted suspension of 5-azacytidine was then stored either refrigerated or frozen.
In one experiment, the suspension was stored at a temperature of between about 2° C. and about 8° C. for up to 72 hours, and then warmed to about 25° C. over a period of about 30 minutes. In another experiment, the suspension was stored at a temperature of about −20° C. for up to 7 days, and then thawed and stored refrigerated for up to 48 hours, and then warmed to about 25° C. over a period of about 30 minutes.
The dry lyophilized powder was stored in the vials under normal conditions for about 48 months prior to use in this experiment.
The contents of the vials were reconstituted with cold Water for Injection. Prior to reconstitution, the Water for Injection was stored refrigerated for at least 24 hours. All vials were reconstituted into an opaque, white suspension within 20 seconds.
The vials were stored at conditions described above for a certain time. The contents of all vials were re-dispersed into an opaque, white suspension within 20 seconds of shaking after each storage conditions or time points described in this example.

A short description of series [5]: cold water reconstitution of Vidaza with refrigerated storage: potency, redispersibility time, appearance (Example F). The following applies: for stability time (not more than 3% loss of potency from Time 0): cold WFI (2-8° C.) reconstitution, refrigerated (2-8° C.) storage. The series is classed as physicochemical. The method, then: Sterility testing was performed at the end of the study. Stability of azacitidine was defined in this study as not more than 3% loss of potency from Time 0 (e.g., baseline).
Analytical methods and stability testing: The potency of azacitidine was determined by quantitating the sample against an external standard utilizing reverse phase chromatography with UV detection, in accordance with ICH guidelines. The determination of suspension appearance for redispersibility time was performed visually, in accordance with ICH guidelines.
Stability testing of azacitidine was performed by utilizing validated regulatory accepted analytical methods in accordance with ICH guidelines. These studies were conducted at conditions which encompass long-term, intermediate and accelerated storage of the drug product over a period of time.
Materials and methods: Two lots of sterile commercial scale azacitidine drug product, each nearing the end of their expiry period of 48 months, were used for the study. Each lot of drug product was prepared as a homogeneous mixture of lyophilized powder and placed in labeled vials in preparation for reconstitution. Vials from each lot of azacitidine drug product were then reconstituted with 4 mL of refrigerated (2-8° C.) WFI and immediately placed in refrigerated storage (2-8° C.). After refrigerated storage for 16, 18, 20, and 22 hours, reconstituted vials of azacitidine were removed from refrigeration and placed at 25° C. for 30 minutes. Equilibration time to 25° C. for refrigerated azacitidine suspension was determined to be 30 minutes. […] Stability of azacitidine was defined in this study as not more than 3% loss of potency from Time 0 (e.g., baseline). Sterility of the refrigerated drug product was assessed for reconstituted vials stored at 2-8° C. at end of study.

Series [6] is described as follows: cold water reconstitution of Vidaza with frozen storage, Study 2: HPLC assay, redispersion time, appearance (Example G). The following applies: reconstituted with refrigerated WFI, stored frozen (−20° C.). The series is classed as physicochemical. How it is done: The study was performed in a similar fashion as Example F, and the cold water reconstituted suspension was then stored under frozen conditions. […] A study to determine the thawing time of the frozen suspensions at 25° C. was also conducted.
Testing was performed using two lots of homogenized drug product. […] The second study analyzed the reconstituted drug product after storage of reconstituted drug product at −20° C. utilizing hold times of 24, 48, and 72 hours followed by a post hold time of 45 minutes at 25° C. to allow for thawing as determined in the first study.
Analytical Methods: The amount of azacitidine and related impurities contained in azacitidine samples was determined utilizing High Performance Liquid Chromatography (HPLC). Two methods were used to complete this testing. […] Reconstitution and redispersibility times were determined in a manner similar to that as described in Example F. Appearance of the suspension was determined visually. […]
An appropriate number of homogenized azacitidine drug product vials were reconstituted with refrigerated WFI as described above, and placed in a freezer (−20° C.). […] After thawing, the contents of the vials were analyzed, for example, by HPLC. […] In addition to the frozen vials, a set of drug product vials were reconstituted and diluted, and immediately analyzed for use as T0 (baseline). […]

The next series concerns higher-risk MDS. The following applies: Phase III, subcutaneous, subjects with higher-risk MDS; cited from earlier work.
The test system of a further series is leukemic mouse model. As to the kind of experiment: activity and toxicity of degradation products in a leukemic mouse model. Format: in vivo.

In brackets after ≈: the same amount, converted by molar mass. Entries after “also recorded” stand apart in the source; their conditions may differ.

With `Nc1ncn([C@H]2C[C@H](O)[C@@H](CO)O2)c(=O)n1` [5-aza-2′-deoxycytidine], the “anti-tumor activity in clinical trials” value in the series with MDS, AML, CML, ALL, NHL is recorded as “significant anti-tumor activity”.
A word on the pKa: it is the negative logarithm of the acid dissociation constant. High values mean a weaker acid or stronger base, low ones a stronger acid or weaker base. For orientation: solubility means the concentration that dissolves in the medium under given conditions. A lower solubility goes with little dissolved substance. Broadly, the bioavailability is the share of a dose that reaches the circulation, judged against a reference dose that is usually intravenous. Take `Nc1ncn([C@@H]2O[C@H](CO)[C@@H](O)[C@H]2O)c(=O)n1` [5-azacytidine, 4-amino-1-β-D-ribofuranosyl-1,3,5-triazin-2(1H)-one]: the figures for the pKa in the series “pKa of 5-azacytidine” (higher of the two pKa values) and in the series “pKa of 5-azacytidine” (lower of the two pKa values) were around 10.2 and around 2.8, respectively. Moreover, the solubility in [1] (5° C.) is around 6.4 mg/mL (≈ 26.2 mM); in series [1] (25° C.), around 14 mg/mL (≈ 57.3 mM). Besides, the “Degradation Rate” value was 0.7% per hour in series [2] (Solution, 2° C. to 8° C.); 2.8% per hour in [2] (Solution, 25° C.); 0.1% per hour in series [2] (Suspension, 2° C. to 8° C.); 2.5% per hour in series [2] (Suspension, 25° C.); “about 0.12 % w/w per hour” in series [4] (suspension reconstituted with cold Water for Injection, stored refrigerated). Further, the “Cmax for SC dosing” value in [3] (SC) is on record as “rapid”. Also, the bioavailability in series [3] (in vivo, subcutaneous, SC vs IV, read-out: relative bioavailability of SC dose (relative to IV dose)) is around 90%. Further, the “degradation on frozen storage” value in series [4] (reconstituted with cold Water for Injection, stored frozen, for at least 7 days) was “no significant degradation”. The compound further registered a redispersion time in [5] (16, 18, 20 and 22 hr refrigerated storage and 30 minutes equilibration to 25° C.) of 0.3 min. Also, the appearance of suspension result in series [5] (16, 18, 20 and 22 hr refrigerated storage and 30 minutes equilibration to 25° C., listed as Azacitidine) is “fine white particles in suspension”; in series [5] (16, 18, 20 and 22 hr refrigerated storage and 30 minutes equilibration to 25° C., listed as azacitidine) it was “fine white particles in suspension and the absence of clumps”. In addition, the “stability time (not more than 3% loss of potency from Time 0)” value in [5] (listed as Azacitidine) is “about 22 hours”; in series [5] (listed as azacitidine), 22 h. Moreover, in series [5] (cold WFI reconstitution with refrigerated storage, 8 to 22 hours, listed as azacitidine), the “prolongation of stability time versus usual reconstitution” value is recorded as “about a threefold prolongation; also recorded: nearly threefold”. The “maximum loss of potency” value in series [5] (cold water (2-8° C.) reconstitution, refrigerated storage baseline to 22 hr, 30 minutes equilibration to 25° C., each of the two lots) came out at 2.7%. Further, in series [6], the “stability time under frozen storage” value is on record as “up to 72 hours”. Also, the “anti-tumor activity in clinical trials” value in the series with MDS, AML, CML, ALL, NHL is on record as “significant anti-tumor activity”. For the same compound, the “survival and time to AML transformation or death” value in the series on higher-risk MDS was “significantly prolonged survival and time to AML transformation or death”.
On to `N=C(NC=O)NC(=O)N[C@@H]1O[C@H](CO)[C@@H](O)[C@H]1O` [primary degradation product, N-formylguanyribosylurea], for which, in the series with leukemic mouse model (dosed at about 240 mg/m^2), the “activity relative to 5-azacytidine” value is “about 25%” and the “toxicity relative to 5-azacytidine” value is given as “about 25%”.
For the compound `NC(N)=NC(=O)N[C@@H]1O[C@H](CO)[C@@H](O)[C@H]1O` [secondary degradation product, guanylribosylurea], in the series on leukemic mouse model (dosed at 1440 mg/m^2), the activity entry is listed as “neither activity nor toxicity” and the toxicity entry is “neither activity nor toxicity”.

The record behind these values is patent US9393255B2, “Pharmaceutical compositions of cytidine analogs and methods of use thereof” (Celgene Corporation, priority 2011, dated 2016).
